The record followed here is patent US9546153B2, “Bicyclic heterocycle substituted pyridyl compounds useful as kinase modulators” (BRISTOL-MYERS SQUIBB COMPANY, priority 2012, dated 2017).

One assay has as its target IRAK4 (Homo sapiens (Human), UniProt Q9NWZ3). Put plainly: IRAK4 Inhibition Assay. The class given is biochemical. Particulars: ATP 500 μM; IRAK4 0.6 nM; 60 min at room temperature. On the procedure: The assays were performed in U-bottom 384-well plates. […] The reaction was initiated by the combination of IRAK4 with substrates and test compounds. The reaction was incubated at room temperature for 60 min. and terminated by adding 45 μL of 35 mM EDTA to each sample. The reaction mixture was analyzed on the Caliper LABCHIP® 3000 (Caliper, Hopkinton, Mass.) by electrophoretic separation of the fluorescent substrate and phosphorylated product.

In assay [1] the test system is TLR2 induced IL-6 in peripheral blood mononuclear cells (PBMCs). Put plainly: PBMC TLR2 Induced IL-6 Assay. The conditions noted are these: human PBMCs, 10 μg/ml lipoteichoic acid for 5 hours, IL-6 by ELISA; for IC50: value without asterisk, read-out: Cell IC50; for EC50: EC50 determinations are indicated with an asterisk, read-out: Cell EC50 (asterisk). The class given is cell-based, human. A digest of the protocol:
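IL-6 ELISA of supernatants after a 5 h challenge with the TLR2 agonist lipoteichoic acid (10 μg/ml). Before stimulation, human PBMCs (250000 cells/well; RPMI, 10% heat-inactivated FCS) received compound for 30 min at 37° C. Values given as IC50 or EC50.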
A general note: ELISA stands for enzyme-linked immunosorbent assay.

Structures are written as SMILES. Where two headings read alike, the source gives them in different places.

IRAK4, sequence (Q9NWZ3 whole entry, species assumed): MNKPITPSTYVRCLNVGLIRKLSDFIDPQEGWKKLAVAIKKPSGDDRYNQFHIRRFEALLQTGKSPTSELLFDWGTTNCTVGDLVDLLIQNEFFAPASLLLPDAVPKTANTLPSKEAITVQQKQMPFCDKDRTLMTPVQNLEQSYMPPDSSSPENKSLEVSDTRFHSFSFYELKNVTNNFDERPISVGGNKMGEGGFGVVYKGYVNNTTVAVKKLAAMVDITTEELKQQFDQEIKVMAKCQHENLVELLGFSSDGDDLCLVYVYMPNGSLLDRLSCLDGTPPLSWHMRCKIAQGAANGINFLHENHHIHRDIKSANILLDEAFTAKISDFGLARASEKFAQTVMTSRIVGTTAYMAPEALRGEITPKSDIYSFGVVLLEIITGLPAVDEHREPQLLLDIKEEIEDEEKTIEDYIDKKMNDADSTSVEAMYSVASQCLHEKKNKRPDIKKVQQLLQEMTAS

Consider `CC(C)(O)c1cnc(Nc2cc(Nc3ccn4nccc4n3)ncc2C(=O)NC[C@@H](F)C(C)(C)O)s1` [Example 421], for which the IC50 – broadly, the concentration that inhibits the measured activity by half – at IRAK4 is 0.0033 µM; in assay [1] (Homo sapiens, PBMC, 5 h), 0.131 µM.
The matching figures for `CC(C)(O)[C@H](F)CNC(=O)c1cnc(Nc2nc3ccnn3cc2F)cc1NC1CCCOC1` (stereo partly shown) [Example 422]: 0.0113 µM and 0.753 µM.
Turning to `CC(CO)Nc1cc(Nc2nc3ccnn3cc2F)ncc1C(=O)NC[C@@H](F)C(C)(C)O` (stereo partly shown) [Example 423], the IC50 at IRAK4 amounted to 0.0065 µM; in assay [1] (Homo sapiens, PBMC, 5 h) it was 0.461 µM.
For `CC(C)Nc1cc(Nc2ccc3ncsc3c2)ncc1C(=O)NC1CCCC(C(C)(C)O)C1` (stereo not shown) [Example 425], the IC50 came out at 0.0131 µM on IRAK4 and 0.56 µM in assay [1] (Homo sapiens, PBMC, 5 h).
The matching figures for `CC(C)Nc1cc(Nc2ccc3ncc(F)cc3n2)ncc1C(=O)NC[C@@H](F)C(C)(C)O` [Example 427]: 0.0015 µM and 0.042 µM.
Regarding `CC(C)(O)[C@H](F)CNC(=O)c1cnc(Nc2ccc3ncc(F)cc3n2)cc1NC1CCOCC1` [Example 428], the IC50 at IRAK4 was determined as 0.002 µM; in assay [1] (Homo sapiens, PBMC, 5 h) it was 0.052 µM.
In the case of `CC(C)(O)[C@H](F)CNC(=O)c1cnc(Nc2ccc3ncc(F)cc3n2)cc1NC1CC1` [Example 429], the IC50 stood at 0.0021 µM at IRAK4 and 0.128 µM in assay [1] (Homo sapiens, PBMC, 5 h).
Take `CC(C)(O)[C@H](F)CNC(=O)c1cnc(Nc2ccc3ncccc3n2)cc1NC1CCOCC1` [Example 430]: the IC50 on IRAK4 was determined as 0.0016 µM; in assay [1] (Homo sapiens, PBMC, 5 h), 0.102 µM.
The matching figures for `CC(C)(O)[C@H](F)CNC(=O)c1cnc(Nc2cnc3[nH]ccc3c2)cc1NC1CC1` [Example 434]: 0.0065 µM and 0.052 µM.
Regarding `CC(C)(O)[C@H](F)CNC(=O)c1cnc(Nc2ccn3nccc3c2F)cc1N[C@@H]1CCCC1(F)F` [Example 435], the IC50 on IRAK4 came out at 0.0021 µM; in assay [1] (Homo sapiens, PBMC, 5 h), 0.079 µM.
The matching figures for `CC(C)(O)[C@H](F)CNC(=O)c1cnc(Nc2nc3ccnn3cc2F)cc1NC1CCOCC1F` (stereo partly shown) [Example 436]: 0.0049 µM and 0.346 µM.
For `CCNc1cc(Nc2ccc3ncc(F)cc3n2)ncc1C(=O)NC[C@@H](F)C(C)(C)O` [Example 437], the IC50 at IRAK4 was 0.0049 µM; in assay [1] (Homo sapiens, PBMC, 5 h), 0.214 µM.
With `CC(C)(O)[C@H](F)CNC(=O)c1cnc(Nc2ccc3ncccc3n2)cc1NC1CCOCC1F` (stereo partly shown) [Example 438], the IC50 stood at 0.0116 µM on IRAK4 and 0.168 µM in assay [1].
As to `CC(C)(O)[C@H](F)CNC(=O)c1cnc(Nc2ccc3ncccc3n2)cc1NC1CCOCC1F` (stereo partly shown) [Example 439], the IC50 is 0.0031 µM on IRAK4 and 0.064 µM in assay [1].
Take `CC(C)(O)[C@H](F)CNC(=O)c1cnc(Nc2ccc3ncc(C#N)cc3n2)cc1NC1CCCC1(F)F` (stereo partly shown) [Example 441]: the IC50 was 0.0018 µM at IRAK4 and 0.028 µM in assay [1] (Homo sapiens, PBMC, 5 h).
The matching figures for `CC(C)(O)[C@H](F)CNC(=O)c1cnc(Nc2ccc3ncc(C#N)cc3n2)cc1NC1CCCOC1` (stereo partly shown) [Example 442]: 0.0056 µM and 0.106 µM.
Consider `CC(C)(O)[C@H](F)CNC(=O)c1cnc(Nc2ccc3ncc(C#N)cc3n2)cc1NC1CCCOC1` (stereo partly shown) [Example 443], for which the figures for the IC50 (on IRAK4; in assay [1]) were 0.0045 µM and 0.125 µM, respectively.
Consider `CC(C)(O)[C@H](F)CNC(=O)c1cnc(Nc2ccc3ncc(C(N)=O)cc3n2)cc1NC1CCC1` [Example 444], for which the IC50 at IRAK4 amounted to 0.0023 µM; in assay [1] (Homo sapiens, PBMC, 5 h) it was 0.055 µM.
The matching figures for `CC(C)(O)[C@H](F)CNC(=O)c1cnc(Nc2ncc3ncccc3n2)cc1N[C@H]1CCC[C@@H]1F` [Example 445]: 0.0038 µM and 0.106 µM.
As to `CC(C)(O)[C@H](F)CNC(=O)c1cnc(Nc2ncc3ncccc3n2)cc1N[C@@H]1CCC[C@@H]1F` [Example 446], the IC50 came to 0.0106 µM at IRAK4 and 0.094 µM in assay [1] (Homo sapiens, PBMC, 5 h).
For `CC(C)(O)[C@H](F)CNC(=O)c1cnc(Nc2ncc3ncccc3n2)cc1NC1CCC(F)C1` (stereo partly shown) [Example 447], the IC50 on IRAK4 was found to be 0.002 µM; in assay [1], 1.25 µM.
The matching figures for `CC(C)(O)[C@H](F)CNC(=O)c1cnc(Nc2ncc3ncccc3n2)cc1NC1CCC(F)C1` (stereo partly shown) [Example 448]: 0.0165 µM and 0.047 µM.
For `CC(F)CNc1cc(Nc2ccc3ncsc3c2)ncc1C(=O)NC[C@@H](F)C(C)(C)O` (stereo partly shown) [Example 450], the IC50 at IRAK4 worked out at 0.0017 µM; in assay [1] (Homo sapiens, PBMC, 5 h) it was 0.217 µM.
With `CC(F)CNc1cc(Nc2ccc3ncsc3c2)ncc1C(=O)NC[C@@H](F)C(C)(C)O` (stereo partly shown) [Example 451], the IC50 at IRAK4 came to 0.005 µM; in assay [1] it was 0.258 µM.
For the molecule `CC(C)(O)[C@H](F)CNC(=O)c1cnc(Nc2ccn3nccc3n2)cc1NC1CC2CC2C1(F)F` (stereo partly shown) [Example 452], the IC50 at IRAK4 was 0.0025 µM; in assay [1] (Homo sapiens, PBMC, 5 h), 0.239 µM.
The matching figures for `CC(C)(O)c1cnc(Nc2cc(Nc3nc4ccnn4cc3F)ncc2C(=O)NC[C@@H](F)C(C)(C)O)s1` [Example 453]: 0.0026 µM and 0.836 µM.
As to `CC(C)(F)CNc1cc(Nc2cc3scnc3cc2F)ncc1C(=O)NC[C@@H](F)C(C)(C)O` [Example 454], the IC50 at IRAK4 worked out at 0.0028 µM; in assay [1] (Homo sapiens, PBMC, 5 h), 0.038 µM.
The matching figures for `CC(C)Nc1cc(Nc2nc3scnc3cc2F)ncc1C(=O)NC[C@@H](F)C(C)(C)O` [Example 455]: 0.0008 µM and 0.573 µM.
The matching figures for `CC(C)Nc1cc(Nc2ccc3ncsc3c2)ncc1C(=O)NC1CCC(C(C)(C)O)CC1` (stereo not shown) [Example 456]: 0.0016 µM and 0.336 µM.
With `CC(C)Nc1cc(Nc2nc3ccnn3cc2F)ncc1C(=O)NC1CCC(C(C)(C)O)CC1` (stereo not shown) [Example 457], the IC50 at IRAK4 amounted to 0.0034 µM; in assay [1] (Homo sapiens, PBMC, 5 h) it was 1.55 µM.
Regarding `CC(CO)Nc1cc(Nc2nc3scnc3cc2F)ncc1C(=O)NC[C@@H](F)C(C)(C)O` (stereo partly shown) [Example 459], the concentration for half-maximal inhibition (IC50) on IRAK4 is 0.0034 µM; in assay [1], 0.141 µM.
The matching figures for `CC(CO)Nc1cc(Nc2nc3scnc3cc2F)ncc1C(=O)NC[C@@H](F)C(C)(C)O` (stereo partly shown) [Example 460]: 0.0033 µM and 0.553 µM.
Consider `CC(C)(O)[C@H](F)CNC(=O)c1cnc(Nc2nc3scnc3cc2F)cc1NC1CCCC1F` (stereo partly shown) [Example 461], for which the IC50 at IRAK4 stood at 0.002 µM; in assay [1] (Homo sapiens, PBMC, 5 h), 0.147 µM.
With `CC(C)(O)[C@H](F)CNC(=O)c1cnc(Nc2nc3scnc3cc2F)cc1NC1CCCC1F` (stereo partly shown) [Example 462], the IC50 at IRAK4 came out at 0.0017 µM; in assay [1], 0.115 µM.
As for `CC(C)(O)[C@H](F)CNC(=O)c1cnc(Nc2nc3scnc3cc2F)cc1NC1CC1` [Example 467], the IC50 on IRAK4 came to 0.002 µM; in assay [1] (Homo sapiens, PBMC, 5 h), 0.428 µM.
With `CCNc1cc(Nc2nc3scnc3cc2F)ncc1C(=O)NC[C@@H](F)C(C)(C)O` [Example 468], the IC50 at IRAK4 is 0.0041 µM; in assay [1] (Homo sapiens, PBMC, 5 h), 0.246 µM.
The matching figures for `CC(C)(O)[C@H](F)CNC(=O)c1cnc(Nc2nc3scnc3cc2F)cc1NC1CCOCC1F` (stereo partly shown) [Example 469]: 0.0031 µM and 0.476 µM.
In the case of `CC(C)(O)[C@H](F)CNC(=O)c1cnc(Nc2nc3scnc3cc2F)cc1NC1CCOCC1F` (stereo partly shown) [Example 470], the half-inhibitory concentration (IC50) on IRAK4 turned out to be 0.0036 µM; in assay [1] it was 0.635 µM.
Consider `CC(C)(O)[C@H](F)CNC(=O)c1cnc(Nc2nc3scnc3cc2F)cc1NC1CCCOC1` (stereo partly shown) [Example 473], for which the IC50 at IRAK4 came out at 0.0015 µM; in assay [1] (Homo sapiens, PBMC, 5 h), 0.401 µM.
As for `CC(C)(O)[C@H](F)CNC(=O)c1cnc(Nc2nc3scnc3cc2F)cc1NC1CCCOC1` (stereo partly shown) [Example 474], the IC50 on IRAK4 was 0.0028 µM; in assay [1], 0.204 µM.
On to `CC(C)Nc1cc(Nc2cc3ccnn3cc2F)ncc1C(=O)NC[C@@H](F)C(C)(C)O` [Example 477], for which the IC50 at IRAK4 came out at 0.01 µM; in assay [1] (Homo sapiens, PBMC, 5 h), 0.717 µM.
With `CC(C)(O)[C@H](F)CNC(=O)c1cnc(Nc2nc3ccnn3cc2F)cc1NC1CCC(F)C1` (stereo partly shown) [Example 478], the figures for the IC50 (on IRAK4; in assay [1]) were 0.0022 µM and 0.05 µM, respectively.
As for `CC(C)(O)[C@H](F)CNC(=O)c1cnc(Nc2nc3ccnn3cc2F)cc1NC1CCCCC1F` (stereo partly shown) [Example 479], the IC50 at IRAK4 was determined as 0.0043 µM; in assay [1] (Homo sapiens, PBMC, 5 h), 0.473 µM.
As for `CC(C)Nc1cc(Nc2ccc3cc(C#N)ccc3n2)ncc1C(=O)NC[C@@H](F)C(C)(C)O` [Example 480], the IC50 on IRAK4 came out at 0.0084 µM. In addition, in assay [1] (Homo sapiens, PBMC, 5 h), the EC50 – broadly, the concentration giving half of the maximal effect – turned out to be 0.877 µM.
Consider `CC(C)(O)[C@H](F)CNC(=O)c1cnc(Nc2nc3ccnn3cc2F)cc1NC1CC2CC2C1(F)F` (stereo partly shown) [Example 481], for which the IC50 at IRAK4 was 0.0036 µM; in assay [1] (Homo sapiens, PBMC, 5 h), 0.223 µM.
With `Cc1cn2nccc2nc1Nc1cc(NC2CCOCC2)c(C(=O)NC[C@@H](F)C(C)(C)O)cn1` [Example 482], the IC50 at IRAK4 is 0.0103 µM. For the same molecule, in assay [1] (Homo sapiens, PBMC, 5 h), the EC50 is 0.251 µM.
On to `CC(C)Nc1cc(Nc2nc3scnc3cc2F)ncc1C(=O)NCC(F)(F)C(C)(C)O` [Example 483], for which the IC50 at IRAK4 is 0.0034 µM; in assay [1] (Homo sapiens, PBMC, 5 h), 0.463 µM.
The matching figures for `C[C@@H](CO)Nc1cc(Nc2nc3scnc3cc2F)ncc1C(=O)N[C@H]1CC[C@H](O)CC1` [Example 484]: 0.0087 µM and 1.35 µM.
Take `Cc1cn2nccc2cc1Nc1cc(NC(C)C)c(C(=O)NC[C@@H](F)C(C)(C)O)cn1` [Example 487]: the IC50 at IRAK4 turned out to be 0.0081 µM. For the same molecule, the EC50 in assay [1] (Homo sapiens, PBMC, 5 h) was 0.632 µM.
Turning to `CC(C)(F)CNc1cc(Nc2ncc3ncsc3c2F)ncc1C(=O)NC1CCC(C(C)(C)O)CC1` (stereo not shown) [Example 489], the IC50 on IRAK4 came to 0.0082 µM. For the same molecule, the EC50 in assay [1] (Homo sapiens, PBMC, 5 h) worked out at 0.374 µM.
